Measured values as given in publication PMC11371747, “The role of l-leucovorin uptake and metabolism in the modulation of 5-fluorouracil efficacy and antifolate toxicity” (Frontiers in Pharmacology, 2024).
pIC50: −log10 of the molar value.

Columns and labels:
folate receptor α (FRα) = biological target: T1, folate receptor α (FRα) (Homo sapiens, UniProt P15328); experiment: Intact cell competitive binding assay, displacement of [3H]-folic acid from FRα in KB cells
T1 construct: endogenous in cells; host or cells: KB cells (FRα++)
T1 sequence (P15328 25-257): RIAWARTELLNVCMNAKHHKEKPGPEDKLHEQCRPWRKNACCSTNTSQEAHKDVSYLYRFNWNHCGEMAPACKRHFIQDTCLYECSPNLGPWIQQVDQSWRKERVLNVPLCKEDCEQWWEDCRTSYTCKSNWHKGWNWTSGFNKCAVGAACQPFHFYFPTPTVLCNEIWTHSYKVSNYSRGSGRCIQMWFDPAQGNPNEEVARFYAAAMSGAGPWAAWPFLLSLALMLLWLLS
Method: (§1) In order to determine whether the LV isomers were substrates for either folate receptor α (FRα), RFC and/or PCFT, we used model systems with established overexpression of these receptors or transporters ([Westerhof et al., 1995a]; [Westerhof et al., 1995b]; [Lasry et al., 2008]; [Van der Heijden et al., 2009]).
For FRα we used KB cells ([Westerhof et al., 1995b]). An intact cell binding assay for competitive binding was performed as described previously ([Westerhof et al., 1995a]). Briefly, cells were washed with Hanks balanced salt solution and 6 mM glucose (HBSS, pH 7.4), suspended in 1 mL of this solution (1*10^6 for KB cells) and incubated at 4°C for 15 min with 100 pmol [^3H]-folic acid [(^3H)-FA], in the presence and absence of unlabelled folic acid or LV stereoisomers. Cells were collected by centrifugation and analysed for radioactivity. Relative affinities for FRα were defined as the inverse ratio of compound to displace 50% of radioactive folic acid from FRα. The relative affinity of folic acid was set at 1.

[1] = biological target: T2, reduced folate carrier (RFC/SLC19A1) (Homo sapiens, UniProt P41440); experiment: Inhibition of RFC-mediated [3H]-l-LV influx in CEM-7A cells; format: cell-based; conditions: 5 µM [3H]-l-LV, 2 min, 37°C, read-out: Concentration for 50% inhibition of [3H]-l-LV influx (RFC)
T2 construct: CEM-7A cells, which display 30-fold RFC overexpression relative to wild-type CCRF-CEM cells; endogenous in cells; host or cells: CEM-7A (CCRF-CEM variant, RFC+++ 30-fold)
T2 sequence (P41440 1-591): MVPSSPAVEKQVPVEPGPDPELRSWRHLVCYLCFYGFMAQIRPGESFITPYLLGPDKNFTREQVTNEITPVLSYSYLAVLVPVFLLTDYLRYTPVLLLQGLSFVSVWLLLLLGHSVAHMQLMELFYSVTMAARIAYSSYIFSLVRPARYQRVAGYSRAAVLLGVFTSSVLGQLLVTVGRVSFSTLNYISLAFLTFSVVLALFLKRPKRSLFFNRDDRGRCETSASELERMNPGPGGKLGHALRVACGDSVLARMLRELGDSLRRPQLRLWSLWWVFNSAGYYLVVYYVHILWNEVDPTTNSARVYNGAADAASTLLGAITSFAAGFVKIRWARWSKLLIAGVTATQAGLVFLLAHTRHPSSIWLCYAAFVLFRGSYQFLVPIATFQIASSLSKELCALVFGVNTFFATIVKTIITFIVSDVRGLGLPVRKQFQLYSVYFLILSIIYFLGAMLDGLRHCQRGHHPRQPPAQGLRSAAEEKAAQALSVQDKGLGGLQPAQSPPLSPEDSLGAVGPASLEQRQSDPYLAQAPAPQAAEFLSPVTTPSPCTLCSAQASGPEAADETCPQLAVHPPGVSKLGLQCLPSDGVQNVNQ
Method: as §1
CEM-7A cells (2 × 10^6) were suspended in 1 mL HBSS and the assay was initiated by addition of 25 μL 200 μM [^3H]-l-LV; 5,000 pmol (i.e., 5 μM final concentration). Incubations proceeded for 2 min at 37°C in the absence and presence of increasing amounts of unlabelled LV/antifolate drug. Blanks consisted of a separate incubation at 4°C or incubation with 100-fold molar excess of unlabelled l-LV. [^3H]-l-LV influx was terminated by adding 9 mL ice-cold HBSS, centrifugation and an additional wash of the cells with 10 mL ice-cold buffer. Cell pellets were then assessed for radioactivity. Relative affinities for RFC are expressed as the concentration of unlabelled drug necessary to inhibit [^3H]-l-LV uptake by 50%.

human PCFT = biological target: T3, human PCFT (Homo sapiens, UniProt Q96NT5); experiment: Inhibition of PCFT-mediated [3H]-l-LV influx in CHO/C5-PCFT cells; format: cell-based, Chinese hamster (CHO cells); conditions: CHO/C5/PCFT cells, 2.5 µM [3H]-l-LV, pH 5.5, 3 min; read-out: Concentration for 50% inhibition of PCFT-mediated [3H]-l-LV influx
T3 construct: expressed in transfected cells; host or cells: CHO/C5 (RFC-deficient Chinese hamster ovary cells, no PCFT)
T3 sequence (Q96NT5 1-459): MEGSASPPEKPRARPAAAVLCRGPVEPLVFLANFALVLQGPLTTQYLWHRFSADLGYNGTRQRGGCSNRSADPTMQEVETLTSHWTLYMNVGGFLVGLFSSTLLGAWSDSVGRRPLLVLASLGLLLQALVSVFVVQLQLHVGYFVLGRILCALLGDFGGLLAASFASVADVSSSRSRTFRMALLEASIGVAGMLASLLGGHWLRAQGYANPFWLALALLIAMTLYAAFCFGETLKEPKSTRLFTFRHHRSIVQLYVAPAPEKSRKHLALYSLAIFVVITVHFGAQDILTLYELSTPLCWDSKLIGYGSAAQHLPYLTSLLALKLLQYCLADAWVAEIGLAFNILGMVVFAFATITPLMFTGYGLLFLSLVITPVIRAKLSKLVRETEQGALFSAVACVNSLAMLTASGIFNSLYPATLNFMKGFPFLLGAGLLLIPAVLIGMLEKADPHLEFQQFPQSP
Method: as §1
The competitive inhibition by 2.5 μM [^3H]-l-LV influx of PCFT was measured essentially as described for the RFC assay, except that the incubation time was 3 min, at pH 5.5 (the optimal pH for PCFT) and pH 7.4 with increasing amounts of unlabelled LV stereoisomers/antifolate drug. For PCFT too, relative affinities were expressed as the concentration of unlabelled drug necessary to inhibit 50% of [^3H]-l-LV influx.

[2] = tested on: unselected cell lines with a different pathology; design: method as in Van der Wilt and Peters, 1994; conditions: large panel of unselected cell lines with a different pathology; ref Van der Wilt and Peters, 1994; cited from earlier work

For Nc1nc2c(c(=O)[nH]1)N(C=O)C(CNc1ccc(C(=O)N[C@@H](CCC(=O)O)C(=O)O)cc1)CN2 (mixture of isomers) [dl-LV], the “50% [3H]-FA displacement, fold lower concentration than l-LV” value (folate receptor α (FRα)) was 2 fold, the “Relative affinity for FRα” value (folate receptor α (FRα); 100 pmol [3H]-FA, inverse ratio of amount of drug displacing 50% of [3H]-FA, FA set to 1) was 0.041 and the pIC50 [1] was 5.14. The pIC50 (human PCFT) was 5.35 and the “Enhancement of the effect of 5FU by dl-LV” value [2] was “about 2 fold”.
